Results: US20170119824A1, “A METHOD FOR THE TREATMENT OF GLIOBLASTOMA WITH WHARTON JELLY-MESENCHYMAL STEM CELLS (WJ-MSC) DERIVED FROM HUMAN UMBILICAL CORD” (priority 2014, published 2017)

System: glioblastoma tumor sample collected from patient
Test: Oncoprint explant tumor culture model, drug sensitivity test with H&E, Ki67 and caspase staining
Format: cell-based, human
Settings: glioma tumor samples in vitro, explant culture in artificial tumor microenvironment
Text: According to one embodiment herein, Ocoprint® an explants tumor culture model to identify the anti-tumor effect of commonly used chemotherapeutics agents as well as Wharton's jelly derived mesenchymal stem cells on gliomas samples. In the laboratory, a tumor microenvironment similar to the body or physiological environment is created artificially in a dish. The tumor sample collected from patient is placed in this micro-environment in dish. Different anticancer agents including the mesenchymal stem cells derived from umbilical cord are applied on the tumor in the micro-environment. This mimics the application of these anti-cancer agents against the tumor when the tumor is in the human body. Simultaneously a control sample is maintained without any treatment or application of anti-cancer agents. After a specific treatment time or incubation the tumor samples are collected from the microenvironment and are subjected to a set of laboratory tests. […] The tests also reveal that the anti-cancer agents are able to kill tumor cells, reduce the number of tumor cells or limit the growth of tumor cells or the anti-cancer agent is converting the aggressively growing tumor cells to a programmed cell death mode.
The tests which are applied for testing effect of anti-cancer agents on the tumor are 1) Hematoxylin and eosin staining (H & E staining), 2) Ki67 is staining and 3) Caspase staining.
The Ki67 staining indicates the growth pattern of tumor cells.
According to one embodiment herein, Ocoprint® an explants tumor culture model to identify the anti-tumor effect of commonly used chemotherapeutics agents as well as Wharton's jelly derived mesenchymal stem cells on glioma's samples. In the laboratory, a tumor microenvironment similar to the body or physiological environment is created artificially in a dish. The tumor sample collected from the patient is placed in this micro-environment in dish. Different anticancer agents including the mesenchymal stem cells derived from umbilical cord are applied on the tumor in the micro-environment. […]

Molecule	Oncoprint sensitivity report: response of glioma samples (responders / non-responders)
O=C1CCC(N2C(=O)c3ccccc3C2=O)C(=O)N1 (stereo not drawn) [Thalidomide]	responded
CNC(=O)c1cc(Oc2ccc(NC(=O)Nc3ccc(Cl)c(C(F)(F)F)c3)cc2)ccn1 [sorafenib]	have not responded
Avastin: anti-cancer agent applied to the glioblastoma tumor	responded
